Assay [1] addresses T1, Helios (Homo sapiens, UniProt Q96SW2+Q9UKS7).
T1 construct: fluorescently labelled antibodies against Helios and Ikaros; endogenous in cells; host or cells: Jurkat cells
Nature of the assay: Helios Cellular Degradation Assay (flow cytometry, Helios-PE antibody staining, 72 h). Format: cell-based. Conditions: Jurkat cells, 72 h incubation, flow cytometry; for Dmax: Jurkat, read-out: Helios Dmax. A digest of the protocol: (§1)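 Flow cytometry of fixed, permeabilized Jurkat cells stained with anti-Helios-PE and anti-Ikaros-Alexa488 (1 h, room temperature) measured remaining protein. Treatment lasted 72 h at 37 °C, 5% CO2, at 80,000 cells/well in RPMI with 10% FBS.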

The target of assay [2] is T2, Ikaros (Homo sapiens, UniProt Q13422).
T2 construct: fluorescently labelled antibodies against Helios and Ikaros; endogenous in cells; host or cells: Jurkat cells
Nature of the assay: Helios Cellular Degradation Assay, Ikaros readout (flow cytometry, Ikaros-Alexa488 antibody staining, 72 h). Format: cell-based. The note with it: Jurkat cells, 72 h incubation, flow cytometry; for Dmax: Jurkat, read-out: Ikaros Dmax. A digest of the protocol:
as §1
On the technique in general: A flow cytometer gives signals particle by particle.

By DC50 is commonly meant the concentration at which degradation of the target reaches its halfway point. A word on the Dmax: it is the greatest extent of degradation seen.

T2 sequence (Q96SW2 whole entry partner): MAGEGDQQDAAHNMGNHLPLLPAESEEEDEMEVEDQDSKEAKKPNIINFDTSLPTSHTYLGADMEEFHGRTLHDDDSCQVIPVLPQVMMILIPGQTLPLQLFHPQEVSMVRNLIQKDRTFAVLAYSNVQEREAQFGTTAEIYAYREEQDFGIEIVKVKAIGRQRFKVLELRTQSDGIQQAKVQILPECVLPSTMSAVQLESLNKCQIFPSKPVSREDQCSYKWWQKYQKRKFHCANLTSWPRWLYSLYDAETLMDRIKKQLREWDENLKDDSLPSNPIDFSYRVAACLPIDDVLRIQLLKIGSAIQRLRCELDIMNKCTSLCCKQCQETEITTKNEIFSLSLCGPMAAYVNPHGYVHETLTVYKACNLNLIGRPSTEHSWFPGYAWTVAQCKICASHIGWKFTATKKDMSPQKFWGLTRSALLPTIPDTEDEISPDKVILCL
T2 sequence (Q16531 whole entry partner): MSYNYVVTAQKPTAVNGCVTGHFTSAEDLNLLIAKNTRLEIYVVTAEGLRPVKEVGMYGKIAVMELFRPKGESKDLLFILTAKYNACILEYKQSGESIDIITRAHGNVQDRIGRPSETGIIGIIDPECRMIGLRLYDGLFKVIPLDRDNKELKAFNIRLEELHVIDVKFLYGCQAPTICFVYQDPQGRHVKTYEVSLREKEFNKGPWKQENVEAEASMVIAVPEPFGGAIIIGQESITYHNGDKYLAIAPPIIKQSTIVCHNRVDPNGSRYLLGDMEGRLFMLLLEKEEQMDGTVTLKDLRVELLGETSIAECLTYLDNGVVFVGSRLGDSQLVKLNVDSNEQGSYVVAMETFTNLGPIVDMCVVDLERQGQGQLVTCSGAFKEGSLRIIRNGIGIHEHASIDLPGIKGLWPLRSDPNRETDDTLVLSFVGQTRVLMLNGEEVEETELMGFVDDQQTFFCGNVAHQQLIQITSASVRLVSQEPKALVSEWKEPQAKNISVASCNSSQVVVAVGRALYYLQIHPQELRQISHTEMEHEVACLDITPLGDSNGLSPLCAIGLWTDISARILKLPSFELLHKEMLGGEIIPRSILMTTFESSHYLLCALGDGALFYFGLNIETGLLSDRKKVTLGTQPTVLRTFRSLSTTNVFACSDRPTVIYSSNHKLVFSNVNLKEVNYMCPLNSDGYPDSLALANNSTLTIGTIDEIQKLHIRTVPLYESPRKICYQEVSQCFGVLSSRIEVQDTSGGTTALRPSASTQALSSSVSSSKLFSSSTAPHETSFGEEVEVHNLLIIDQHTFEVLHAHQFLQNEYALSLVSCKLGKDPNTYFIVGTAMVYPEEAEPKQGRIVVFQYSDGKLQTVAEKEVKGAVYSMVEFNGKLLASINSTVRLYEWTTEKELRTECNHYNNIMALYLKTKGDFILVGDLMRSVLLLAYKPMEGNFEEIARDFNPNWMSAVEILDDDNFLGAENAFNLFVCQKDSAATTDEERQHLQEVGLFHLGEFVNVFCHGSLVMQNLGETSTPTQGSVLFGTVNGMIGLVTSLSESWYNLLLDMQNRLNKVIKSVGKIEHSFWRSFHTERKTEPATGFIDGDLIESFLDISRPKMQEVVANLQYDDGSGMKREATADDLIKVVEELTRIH
T2 sequence (Q13422 whole entry): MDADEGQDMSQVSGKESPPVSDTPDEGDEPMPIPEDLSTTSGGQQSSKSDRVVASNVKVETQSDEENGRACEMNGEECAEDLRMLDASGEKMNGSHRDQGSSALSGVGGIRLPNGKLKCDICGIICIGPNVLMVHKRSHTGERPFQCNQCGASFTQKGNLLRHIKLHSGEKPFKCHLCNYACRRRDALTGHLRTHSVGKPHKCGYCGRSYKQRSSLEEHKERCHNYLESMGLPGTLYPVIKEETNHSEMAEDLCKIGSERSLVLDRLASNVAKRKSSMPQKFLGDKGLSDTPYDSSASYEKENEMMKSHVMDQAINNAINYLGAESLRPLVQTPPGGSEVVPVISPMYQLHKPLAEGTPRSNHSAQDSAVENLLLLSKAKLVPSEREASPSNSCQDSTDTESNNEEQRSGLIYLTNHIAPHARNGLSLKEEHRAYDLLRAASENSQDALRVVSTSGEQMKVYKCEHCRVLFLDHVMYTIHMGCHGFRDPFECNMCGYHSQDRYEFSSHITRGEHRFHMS
T1 sequence (Q9UKS7 whole entry): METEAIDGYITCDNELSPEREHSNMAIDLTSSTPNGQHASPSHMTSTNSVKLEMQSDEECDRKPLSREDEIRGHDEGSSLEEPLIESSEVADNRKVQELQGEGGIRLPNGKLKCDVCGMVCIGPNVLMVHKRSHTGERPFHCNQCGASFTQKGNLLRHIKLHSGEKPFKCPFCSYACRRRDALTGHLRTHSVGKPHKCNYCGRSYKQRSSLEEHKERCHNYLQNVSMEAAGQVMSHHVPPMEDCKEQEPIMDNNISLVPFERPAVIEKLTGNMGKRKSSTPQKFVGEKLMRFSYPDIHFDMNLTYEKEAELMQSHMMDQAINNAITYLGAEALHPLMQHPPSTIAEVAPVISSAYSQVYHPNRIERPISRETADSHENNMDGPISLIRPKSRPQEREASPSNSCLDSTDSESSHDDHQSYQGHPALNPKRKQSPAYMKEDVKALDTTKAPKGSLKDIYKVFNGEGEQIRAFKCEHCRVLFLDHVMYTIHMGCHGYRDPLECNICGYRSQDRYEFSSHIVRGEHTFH
T1 sequence (Q96SW2 whole entry): as the sequence (Q96SW2 whole entry partner) above
T1 sequence (Q16531 whole entry partner): as the sequence (Q16531 whole entry partner) above

On to `O=C1CCC(N2Cc3cc(-c4cc(CNCC5CC5)ccn4)ccc3C2=O)C(=O)N1` (centres unmarked) [Example 64, 3-(5-(4-(((cyclopropylmethyl)amino)methyl)pyridin-2-yl)-1-oxoisoindolin-2-yl)piperidine-2,6-dione], for which, in assay [1], the DC50 was found to be 0.036 µM and the Dmax worked out at 73%. In addition, in assay [2], the DC50 was above 10 µM and the Dmax came out at 1%.
In the same order, the values of `O=C1CCC(N2Cc3cc(-c4cc(CNCCc5ccc(Cl)cc5)ccn4)ccc3C2=O)C(=O)N1` (centres unmarked) [Example 94, 3-(5-(4-(((4-chlorophenethyl)amino)methyl)pyridin-2-yl)-1-oxoisoindolin-2-yl)piperidine-2,6-dione] are 0.035 µM, 74%, above 10 µM and 11%.
In the same order, the values of `O=C1CCC(N2Cc3cc(-c4cc(CNCCN5CCOCC5)ccn4)ccc3C2=O)C(=O)N1` (centres unmarked) [Example 88, 3-(5-(4-(((2-morpholinoethyl)amino)methyl)pyridin-2-yl)-1-oxoisoindolin-2-yl)piperidine-2,6-dione] are 0.072 µM, 102%, above 10 µM and 27%.
On the same counts, the results for `O=C1CCC(N2Cc3cc(-c4cc(CN5CCN(c6ccncc6)CC5)ccn4)ccc3C2=O)C(=O)N1` (centres unmarked) [Example 25, 3-(1-oxo-5-(4-((4-(pyridin-4-yl)piperazin-1-yl)methyl)pyridin-2-yl)isoindolin-2-yl)piperidine-2,6-dione] are above 10 µM, 0%, above 10 µM and 0%.
On to `O=C1CCC(N2Cc3cc(-c4cc(CN5CCC[C@@H]5c5ccccc5)ccn4)ccc3C2=O)C(=O)N1` (stereo partly drawn) [Example 134, 3-(1-oxo-5-(4-(((R)-2-phenylpyrrolidin-1-yl)methyl)pyridin-2-yl)isoindolin-2-yl)piperidine-2,6-dione], for which, in assay [1], the DC50 amounted to 0.016 µM and the Dmax was 95%. In assay [2], the DC50 was above 10 µM and the Dmax amounted to 19%.
In the same order, the values of `CN(Cc1ccnc(-c2ccc3c(c2)CN(C2CCC(=O)NC2=O)C3=O)c1)CC1CCOC1` (centres unmarked) [Example 182, 3-(5-(4-((methyl((tetrahydrofuran-3-yl)methyl)amino)methyl)pyridin-2-yl)-1-oxoisoindolin-2-yl)piperidine-2,6-dione] are 0.316 µM, 79%, above 10 µM and 23%.
With `CN(Cc1ccnc(-c2ccc3c(c2)CN(C2CCC(=O)NC2=O)C3=O)c1)C(C)(C)c1ccccc1` (centres unmarked) [Example 142, 3-(5-(4-((methyl(2-phenylpropan-2-yl)amino)methyl)pyridin-2-yl)-1-oxoisoindolin-2-yl)piperidine-2,6-dione], the 50% degradation concentration (DC50) in assay [1] was 0.088 µM; in assay [2], 0.897 µM. In addition, the Dmax was 83% in assay [1] and 52% in assay [2].
In the same order, the values of `CN(Cc1ccc(Cl)cc1)Cc1ccnc(-c2ccc3c(c2)CN(C2CCC(=O)NC2=O)C3=O)c1` (centres unmarked) [Example 154, 3-(5-(4-(((4-chlorobenzyl)(methyl)amino)methyl)pyridin-2-yl)-1-oxoisoindolin-2-yl)piperidine-2,6-dione] are 3.26 µM, above 10 µM, 54% and 6%.
For the compound `CC(C)CCNCc1ccnc(-c2ccc3c(c2)CN(C2CCC(=O)NC2=O)C3=O)c1` (centres unmarked) [Example 97, 3-(5-(4-((isopentylamino)methyl)pyridin-2-yl)-1-oxoisoindolin-2-yl)piperidine-2,6-dione], the DC50 in assay [1] is 0.008 µM; in assay [2], above 10 µM. Further, the Dmax worked out at 90% in assay [1] and 11% in assay [2].
In the case of `CC1(C)CCN(Cc2ccnc(-c3ccc4c(c3)CN(C3CCC(=O)NC3=O)C4=O)c2)C1` (centres unmarked) [Example 118, 3-(5-(4-((3,3-dimethylpyrrolidin-1-yl)methyl)pyridin-2-yl)-1-oxoisoindolin-2-yl)piperidine-2,6-dione], in assay [1], the 50% degradation concentration (DC50) amounted to 0.011 µM and the Dmax came out at 90%. Also, in assay [2], the half-maximal degradation concentration (DC50) is above 10 µM and the Dmax was determined as 12%.
For `CN1C[C@@H]2CN(Cc3ccnc(-c4ccc5c(c4)CN(C4CCC(=O)NC4=O)C5=O)c3)C[C@@H]2C1` (stereo partly drawn) [Example 78, 3-(5-(4-(((3aR,6aS)-5-methylhexahydropyrrolo[3,4-c]pyrrol-2(1H)-yl)methyl)pyridin-2-yl)-1-oxoisoindolin-2-yl)piperidine-2,6-dione], in assay [1], the DC50 is above 10 µM and the Dmax was 49%. In addition, in assay [2], the DC50 was above 10 µM and the Dmax is 0%.
On to `Cc1cccc(N2CCN(Cc3ccnc(-c4ccc5c(c4)CN(C4CCC(=O)NC4=O)C5=O)c3)CC2C)c1` (centres unmarked) [Example 27, 3-(5-(4-((3-methyl-4-(m-tolyl)piperazin-1-yl)methyl)pyridin-2-yl)-1-oxoisoindolin-2-yl)piperidine-2,6-dione], for which, in assay [1], the DC50 is above 10 µM and the Dmax is 36%. Moreover, in assay [2], the DC50 is above 10 µM and the Dmax is 7%.
On to `CN(Cc1cccc(OC(F)(F)F)c1)Cc1ccnc(-c2ccc3c(c2)CN(C2CCC(=O)NC2=O)C3=O)c1` (centres unmarked) [Example 156, 3-(5-(4-((methyl(3-(trifluoromethoxy)benzyl)amino)methyl)pyridin-2-yl)-1-oxoisoindolin-2-yl)piperidine-2,6-dione], for which, in assay [1], half-maximal degradation (DC50) was put at 1.83 µM and the Dmax was 56%. In addition, in assay [2], the DC50 was above 10 µM and the Dmax was 11%.
In the same order, the values of `O=C1CCC(N2Cc3cc(-c4cc(CN5CC(c6ccccc6)C5)ccn4)ccc3C2=O)C(=O)N1` (centres unmarked) [Example 83, 3-(1-oxo-5-(4-((3-phenylazetidin-1-yl)methyl)pyridin-2-yl)isoindolin-2-yl)piperidine-2,6-dione] are 0.007 µM, 91%, above 10 µM and 20%.
In the same order, the values of `CN(C)Cc1ccnc(-c2ccc3c(c2)CN(C2CCC(=O)NC2=O)C3=O)c1` (centres unmarked) [Example 1, 3-(5-{4-[(Dimethylamino)methyl]pyridin-2-yl}-1-oxo-2,3-dihydro-1H-isoindol-2-yl) piperidine-2,6-dione] are 0.025 µM, 84%, above 10 µM and 9%.
In the same order, the values of `CN(C)C1CCC(NCc2ccnc(-c3ccc4c(c3)CN(C3CCC(=O)NC3=O)C4=O)c2)CC1` (centres unmarked) [Example 107, 3-(5-(4-(((4-(dimethylamino)cyclohexyl)amino)methyl)pyridin-2-yl)-1-oxoisoindolin-2-yl) piperidine-2,6-dione] are 0.494 µM, 80%, above 10 µM and 15%.
For the compound `O=C1CCC(N2Cc3cc(-c4cc(CNCC5(O)CCCCC5)ccn4)ccc3C2=O)C(=O)N1` (centres unmarked) [Example 124, 3-(5-(4-((((1-hydroxycyclohexyl)methyl)amino)methyl)pyridin-2-yl)-1-oxoisoindolin-2-yl)piperidine-2,6-dione], in assay [1], it took 0.058 µM to reach half-maximal degradation (DC50) and the Dmax came out at 95%. Also, in assay [2], the half-maximal degradation concentration (DC50) is above 10 µM and the Dmax was 11%.
On the same counts, the results for `CN(C)[C@@H]1CCN(Cc2ccnc(-c3ccc4c(c3)CN(C3CCC(=O)NC3=O)C4=O)c2)C1` (stereo partly drawn) [Example 45, 3-(5-(4-(((R)-3-(dimethylamino)pyrrolidin-1-yl)methyl)pyridin-2-yl)-1-oxoisoindolin-2-yl)piperidine-2,6-dione] are above 10 µM, 43%, above 10 µM and 6%.
In the same order, the values of `CCN(Cc1ccncc1)Cc1ccnc(-c2ccc3c(c2)CN(C2CCC(=O)NC2=O)C3=O)c1` (centres unmarked) [Example 22, 3-(5-(4-((ethyl(pyridin-4-ylmethyl)amino)methyl)pyridin-2-yl)-1-oxoisoindolin-2-yl) piperidine-2,6-dione] are 0.537 µM, 67%, above 10 µM and 33%.
In the case of `CN(Cc1ccnc(-c2ccc3c(c2)CN(C2CCC(=O)NC2=O)C3=O)c1)Cc1ccc2ccccc2c1` (centres unmarked) [Example 162, 3-(5-(4-((methyl(naphthalen-2-ylmethyl)amino)methyl)pyridin-2-yl)-1-oxoisoindolin-2-yl)piperidine-2,6-dione], in assay [1], the DC50 was determined as 1.09 µM and the Dmax stood at 63%. In assay [2], the DC50 is above 10 µM and the Dmax was 2%.
Consider `CCCNCc1ccnc(-c2ccc3c(c2)CN(C2CCC(=O)NC2=O)C3=O)c1` (centres unmarked) [Example 62, 3-(1-oxo-5-(4-((propylamino)methyl)pyridin-2-yl)isoindolin-2-yl)piperidine-2,6-dione], for which, in assay [1], the DC50 turned out to be 0.045 µM and the Dmax was found to be 80%. Further, in assay [2], the DC50 was above 10 µM and the Dmax came to 5%.
In the same order, the values of `C[C@H](NCc1ccnc(-c2ccc3c(c2)CN(C2CCC(=O)NC2=O)C3=O)c1)c1ccccc1` (stereo partly drawn) [Example 123, 3-(1-oxo-5-(4-((((S)-1-phenylethyl)amino)methyl)pyridin-2-yl)isoindolin-2-yl) piperidine-2,6-dione] are 0.007 µM, 92%, above 10 µM and 8%.
Take `CN1CCC(N(C)Cc2ccnc(-c3ccc4c(c3)CN(C3CCC(=O)NC3=O)C4=O)c2)C1` (centres unmarked) [Example 49, 3-(5-(4-((methyl(1-methylpyrrolidin-3-yl)amino)methyl)pyridin-2-yl)-1-oxoisoindolin-2-yl)piperidine-2,6-dione]: in assay [1], the 50% degradation concentration (DC50) is above 10 µM and the “Helios Dmax” value was 29%. Besides, in assay [2], the 50% degradation concentration (DC50) is above 10 µM and the “Ikaros Dmax” value amounted to 3%.

Values taken from patent US11548870B2, “Compounds useful as inhibitors of helios protein” (Bristol-Myers Squibb Company, priority 2019, dated 2023).
